Entries after “also recorded” stand apart in the source; their conditions may differ.
How the values were obtained:
[1] = system: primary cortical neurons; format: cell-based
[2] = system: primary cortical neurons
[3] = system: primary cortical neurons; remark: listed apart in the source
[4] = system: primary cortical neurons; format: cell-based; remark: listed apart in the source
[5] = system: mouse middle cerebral artery occlusion (MCAO) stroke model; details: in vivo
[6] = system: primary cortical neurons; format: cell-based; remark: listed apart in the source
[7] = system: mouse middle cerebral artery occlusion (MCAO) stroke model; details: in vivo; remark: listed apart in the source
[8] = system: mouse middle cerebral artery occlusion (MCAO) stroke model; details: in vivo; remark: listed apart in the source

For O=C1CC[C@@]2(O)[C@H]3Cc4ccc(O)c5c4[C@@]2(CCN3CC2CC2)[C@H]1O5 [NTX, naltrexone], the “neuronal death (LDH), in words” value [1] was “No statistical significant difference”, the “neuronal survival (MTT), in words” value [2] was “No statistical significant difference” and the “neuronal survival (MTT), NMDA, in words” value [3] was “did not show any significant effect”. For the same molecule, the “neuronal death (LDH), NMDA, in words” value [4] was “did not show any significant effect”, the “neurological score, in words” value [5] was “did not improve any neurological score” and the “ROS production, in words” value [6] was “did not show a significant decrease in ROS production”.
In the case of C[C@@H](NC(=O)[C@@H](N)Cc1ccc(O)cc1)C(=O)NCC(=O)N[C@@H](Cc1ccccc1)C(=O)NNC(=O)[C@H](Cc1ccccc1)NC(=O)CNC(=O)[C@@H](C)NC(=O)[C@@H](N)Cc1ccc(O)cc1 [biphalin], the “less LDH release” value [1] is reported as 30.5%, the “neuronal death (LDH), in words” value [1] is reported as “significantly decreased neuronal cell death” and the “Horizontal Activity” value [7] is reported as 760. The “No. of Movements” value [7] was 42, the “Rest Time” value [7] was 240 s and the “Stereotpy Counts” value [7] was 390. For the same molecule, the “Total Distance (CM)” value [7] was 650 CM, the “Vertical Activity” value [7] was 28 and the “locomotor parameters, in words” value [7] was “statistically significantly improved all the locomotor parameters”. The “edema formation, in words” value [8] was “significantly decreased edema formation”, the “infarct formation, in words” value [8] was “significantly decreased; also recorded: significantly reduced infarct formation” and the “reduction in edema formation” value [8] was 56.17%. For the same molecule, the “reduction in infarct ratio” value [8] was 67.0%, the “neuronal survival (MTT), in words” value [2] was “significantly increased neuronal survival” and the “more neuronal survival (MTT)” value ([2]; 3 h, 10 nM) was 42.6%. The “neuronal survival (MTT), NMDA, in words” value [3] was “significantly improved relative neuronal survival”, the “more neuronal survival (MTT), NMDA” value ([3]; 3 h) was 28.7% and the “less LDH release, NMDA” value [4] was 18.4%. For the same molecule, the “neuronal death (LDH), NMDA, in words” value [4] was “significantly decreased relative neuronal death”, the neurological score improvement [5] was 25.5% and the “neurological score, in words” value [5] was “improved neurological behavior”. For the same molecule, the “ROS production, in words” value [6] was “significantly decreased ROS production” and the “less ROS production” value [6] was 29.1%.

From US20210196782A1 (priority 2015, published 2021)
